Results as given in US7432286B1, “Pharmaceutically active sulfonyl hydrazide derivatives” (Laboratories Serono SA, priority 1999, dated 2008).

Assays:
GST-JNK3 = GST-JNK3 (Homo sapiens, UniProt P53779); test: JNK3 in vitro assay (SPA, GST-c-Jun phosphorylation); type: biochemical; details: recombinant pre-activated GST-JNK3, 2 μM ATP
Description: (§1) JNK 2 and 3 in vitro assays: JNK3 and/or 2 assays are performed in 96 well MTT plates, by incubation of 0.5 μg of recombinant, pre-activated GST-JNK3 or GST-JNK2 with 1 μg of recombinant, biotinylated GST-c-Jun and 2 μM ^33γ-ATP (2 nCi/μl), in the presence or absence of sulfonamide inhibitors if formula I and in a reaction volume of 50 μl containing 50 mM Tris-HCl, pH 8.0; 10 mM MgCl2; 1 mM Dithiothreitol, and 100 μM NaVO4. The incubation is performed for 120 min. at R.T and stopped upon addition of 200 μl of a solution containing 250 μg of Streptavidine-coated SPA beads (Amersham, Inc.)*, 5 mM EDTA, 0.1% Triton X-100 and 50 μM ATP, in phosphate saline buffer. After incubation for 60 minutes at RT, beads are sedimented by centrifugation at 1500×g for 5 minutes, resuspended in 200 μl of PBS containing 5 mM EDTA, 0.1% Triton X-100 and 50 μM ATP and the radioactivity measured in a scintillation β counter, following sedimentation of the beads as described above. By substituting GST-c Jun for biotinylated GST-1ATF2 or myelin basic protein, this assay can be used to measure inhibition of preactivated p38 and ERK MAP Kinases, respectively.
(§2) The values indicated in respect of JNK2 and 3, p38 and ERK2 refer to the IC50 (μM), i.e. the amount necessary to achieve 50% inhibition of said target (e.g. JNK2). From the above table it could be derived that said test compounds according to formula I do have a significant effect both on JNK2 and 3, but virtually no effect onto p38 and ERK2, thus delivering a quite selective inhibitory effect.

GST-JNK2 = GST-JNK2 (Homo sapiens, UniProt P45984); test: JNK2 in vitro assay (SPA, GST-c-Jun phosphorylation); type: biochemical; details: recombinant pre-activated GST-JNK2, 2 μM ATP
Description: as §1, §2

p38 = p38 (Homo sapiens, UniProt Q16539); test: p38 in vitro kinase assay (SPA, GST-ATF2 substrate); type: biochemical; details: preactivated p38
Description: as §1, §2

ERK2 = ERK2 (Homo sapiens, UniProt P28482); test: ERK2 in vitro kinase assay (SPA, myelin basic protein substrate); type: biochemical; details: preactivated ERK
Description: as §1, §2

[1] = system: IL-2 release by Jurkat cells; test: IL-2 release assay (PMA+Ionomycine stimulated, ELISA); type: cell-based; details: Homo sapiens, 24 hours, read-out: % Inhibition of IL2 Production @ 3 uM
Description: Jurkat cells, a human T cell leukemia cell line (American Type Culture Collection # TIB 152) were cultured in RPMI 1640 medium (Gibco, BRL) supplemented with 10% of heatactivated FCS, Glutamine and Penstrep. The cell suspension in the medium is diluted to give 2.10^6 cells/mL. The cells were plated (2.10^5 cells/well) on a 96-well plate containing different concentration of test compound (final concentration of compounds, 10, 3, 1, 0.3, 0.1 μM). This mixture is incubated 30 minutes at 37° C. in a humidified CO2 atmosphere. Cells were then treated with 10 ul PMA+Ionomycine (0.1 μM and 1 μM final concentration) in all wells except negative control. In wells without compounds, 10 μl of RPMI 2% DMSO (=0.1% final) is added. Cells are incubated 24 hours at 37° C. and then the supernatant harvested (freeze at −20° C. if not used the same day) prior to performing IL-2 ELISA test on the supernatant.
IL-2 release into the medium by PMA+Iono-stimulated Jurkat cells, in presence or absence of test compounds is assayed by ELISA. Following the procedure described below
Transfer 100 μl capture antibody diluted in PBS at 5 μg/mL into a 96 well ELISA plate and incubate overnight at room temperature.
Aspirate each well and wash 3 times with Wash buffer. After the last wash, damp the plate.
1. Saturate with 200 μl PBS-10% FCS. Incubate 1 hour at room temperature.
2. Repeat the wash step 2.
• 1. Add 100 μl of sample or standard (2000, 1000, 500, 250, 125, 62.5, 31.25 pg/mL) and incubate 2 hours at room temperature. • 2. Wash 3 times. • 3. Add 100 μl of biotinylated anti-human IL-2 at 12.5 ng/mL. Incubate 2 hours at room temperature. • 4. Wash 3 times. • 5. Add 100 μl streptavidin-HRP (Zymed #43-4323) at 1:10,000. Incubate 30 minutes at room temperature. • 6. Wash 3 times • 7. Add 100 μl substrate solution (citric acid/Na2HPO4 (1:1)+H2O2 1:2000+OPD). Incubate 20-30 minutes at room temperature. • 8. Add 50 μl of stop solution to each well. • 9. Determine optical density using a microtiter plate reader set to 450 nm with correction at 570 nm.

Hlr c-Jun HeLa cells = test: C-Jun reporter assay (MEKK1 induced, Dual-Luciferase); type: cell-based; details: Homo sapiens
Description: Hlr c-Jun HeLa cells are cultured in DMEM High Glc supplemented with 10% FCS (Sigma), 2 mM Glutamine (Gibco), P/S, Hygromycin b 100 μg/mL and G418 250 μg/mL
The cell suspension are diluted with medium to give about 3.5×10^6 cells/mL and […] of cell suspension are put onto 210 cm culture dishes containing 9 mL of culture medium. The plates are incubated at 37° C. in a humidified atmosphere of 5% CO2 in air
• Control: 0.2 μg pTK Renilla, […] pBluescript KS, 500 μl OPTIMEM (GIBCO), 18 μl Fugene 6 • Induced: 0.1 μg pMEKK1, 0.2 μg pTK Renilla, 5.7 μg pBluescript KS, 500 μl OPTIMEM (GIBCO), 18 μl Fugene 630′ RT
The transfection mixture is added to the plated cells. The plates are incubated over night at 37° C. in a humidified atmosphere of 5% CO2 in air
A 96 wells plate containing 100 μl of culture medium per well is prepared Negative control (vehicle): 2 μl of DMSO is added to the 100 μl (in triplicate). Compound: 2 μl of Hit compound stock dilution are added to the 100 μl (in triplicate). The transfected cells are trypsinised and ressuspend in 12 mL of culture medium. 100 μl of the dilution are added to each of the 96 wells plate.
The plate is incubated over night at 37° C. in a humidified atmosphere of 5% CO2 in air
The medium is removed from the plate and the cells washed two times with 100 μl PBS Completely remove the rinse solution before applying PLB reagent. Dispense into each culture well […] of 1X PLB. Place the culture plates on a rocking platform or orbital shaker with gentle
rocking/shaking to ensure complete and even coverage of the cell monolayer with 1X PLB. Rock the culture plates at room temperature for 15 minutes. Transfer 20 μl of the lysate into a white opaque 96 wells plate. Read in a luminometer. • Inject 50 μl of Luciferase Assay Reagent II wait 5″, read 10″ • Inject 50 μl of Stop & Glo® Reagent wait 5″, read 10″
Check RLU Luciferase/RLU Renilla*1000

Chain of p38 (Q16539 whole entry): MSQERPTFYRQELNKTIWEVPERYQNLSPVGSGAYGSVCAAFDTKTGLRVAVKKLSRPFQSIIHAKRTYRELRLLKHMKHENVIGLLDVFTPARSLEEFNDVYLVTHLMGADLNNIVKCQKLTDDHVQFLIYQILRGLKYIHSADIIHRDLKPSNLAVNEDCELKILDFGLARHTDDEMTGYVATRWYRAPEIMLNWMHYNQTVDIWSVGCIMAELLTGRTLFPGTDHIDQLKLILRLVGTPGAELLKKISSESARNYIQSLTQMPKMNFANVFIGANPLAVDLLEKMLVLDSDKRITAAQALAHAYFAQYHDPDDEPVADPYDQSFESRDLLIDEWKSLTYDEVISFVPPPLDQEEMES
Chain of GST-JNK3 (P53779 whole entry): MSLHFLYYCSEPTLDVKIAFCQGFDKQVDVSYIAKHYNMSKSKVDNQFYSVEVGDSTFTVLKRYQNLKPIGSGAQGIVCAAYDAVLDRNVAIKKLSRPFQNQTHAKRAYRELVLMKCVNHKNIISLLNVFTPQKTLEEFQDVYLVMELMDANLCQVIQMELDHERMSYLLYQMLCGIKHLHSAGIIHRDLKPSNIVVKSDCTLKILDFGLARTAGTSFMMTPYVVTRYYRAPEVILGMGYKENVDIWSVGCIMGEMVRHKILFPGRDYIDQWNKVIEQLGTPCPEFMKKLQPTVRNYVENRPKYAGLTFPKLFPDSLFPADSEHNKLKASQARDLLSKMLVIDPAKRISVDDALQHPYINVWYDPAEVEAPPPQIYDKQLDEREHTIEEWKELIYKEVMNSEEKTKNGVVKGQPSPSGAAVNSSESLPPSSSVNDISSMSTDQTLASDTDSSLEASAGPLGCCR
Chain of GST-JNK2 (P45984 whole entry): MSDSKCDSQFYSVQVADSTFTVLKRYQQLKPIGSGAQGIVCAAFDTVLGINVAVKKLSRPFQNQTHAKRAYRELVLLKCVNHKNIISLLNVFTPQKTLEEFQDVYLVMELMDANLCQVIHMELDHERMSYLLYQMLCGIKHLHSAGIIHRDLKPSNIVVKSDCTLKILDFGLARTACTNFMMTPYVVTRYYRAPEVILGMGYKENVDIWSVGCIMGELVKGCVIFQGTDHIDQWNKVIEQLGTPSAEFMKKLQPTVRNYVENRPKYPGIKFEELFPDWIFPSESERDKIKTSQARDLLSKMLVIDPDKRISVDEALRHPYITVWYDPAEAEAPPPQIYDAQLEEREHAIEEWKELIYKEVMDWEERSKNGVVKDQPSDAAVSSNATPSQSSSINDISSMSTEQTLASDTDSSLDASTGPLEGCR
Chain of ERK2 (P28482 whole entry, species assumed): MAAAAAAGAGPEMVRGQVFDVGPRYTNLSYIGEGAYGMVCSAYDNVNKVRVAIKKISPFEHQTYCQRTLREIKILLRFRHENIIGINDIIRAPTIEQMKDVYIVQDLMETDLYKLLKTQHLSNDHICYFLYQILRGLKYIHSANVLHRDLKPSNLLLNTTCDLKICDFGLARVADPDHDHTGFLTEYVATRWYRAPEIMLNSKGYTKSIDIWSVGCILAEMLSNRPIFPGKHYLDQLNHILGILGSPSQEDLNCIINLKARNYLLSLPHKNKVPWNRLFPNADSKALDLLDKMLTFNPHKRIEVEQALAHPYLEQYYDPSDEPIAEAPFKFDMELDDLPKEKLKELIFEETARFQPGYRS

SMILES | IC50 (GST-JNK3) [nM] | IC50 (GST-JNK2) [nM] | IC50 (p38) [nM] | IC50 (ERK2) [nM] | inhibition at 3 µM [1] [%] | inhibition at 10 µM (Hlr c-Jun HeLa cells) [%] | melting point [°C]
O=C(CCCNc1ncc(C(F)(F)F)cc1Cl)NNS(=O)(=O)c1ccc(CNC(=O)c2ccc(Cl)cc2)cc1 [Example 80, 4-chloro-N-(4-{[2-(4-{[3-chloro-5-(trifluoromethyl)pyridin-2-yl]amino}butanoyl)hydrazino]sulfonyl}benzyl)benzamide] | 250 | 1020 | > 30000 | > 30000 | > 30 | > 20 | 
O=C(NCc1ccc(S(=O)(=O)NNC(=O)c2csc(COc3ccccc3Cl)n2)s1)c1ccc(Cl)cc1 [Example 13, 4-chloro-N-[(5-{[2-({2-[(2-chlorophenoxy)methyl]-1,3-thiazol-4-y1}carbonyl)hydrazino]sulfonyl}thien-2-yl)methyl]benzamide] | 310 | 970 | > 30000 | > 30000 | > 30 | > 20 | 
O=C(CCCNc1ncc(C(F)(F)F)cc1Cl)NNS(=O)(=O)c1ccc(CNC(=O)c2ccc[nH]c2=O)s1 [Example 75, N-[(5-{[2-(4-{[3-chloro-5-(trifluoromethyl)pyridin-2-yl]amino}butanoyl)hydrazino]sulfonyl}thien-2-yl)methyl]-2-oxo-1,2-dihydropyridine-3-carboxamide] | 410 | 560 | > 30000 | > 30000 | > 30 | > 20 | 
O=C(CCCNc1ncc(C(F)(F)F)cc1Cl)NNS(=O)(=O)c1ccc(CNC(=O)c2ccccc2O)s1 [Example 20, N-[(5-{[2-(4-{[3-chloro-5-(trifluoromethyl)pyridin-2-yl]amino}butanoyl)hydrazino]sulfonyl}thien-2-yl)methyl]-2-hydroxybenzamide] |  |  |  |  |  |  | 174.5 to 175.5
O=C(NCc1ccc(S(=O)(=O)NNC(=O)c2csc(-c3ccc(C4SCCS4)cc3)n2)s1)c1ccc(Cl)cc1 [Example 1, 4-chloro-N-[(5-{[2-({2-[4-(1,3-dithiolan-2-yl)phenyl]-1,3-thiazol-4-yl}carbonyl)-hydrazino]sulfonyl}thien-2-yl)methyl]benzamide] | 210 | 370 | > 30000 | > 30000 | > 30 | > 20 | 
